Laboratory results: patent EP3381907A1, “SYMMETRICAL 2-AMINOPHENYL-BENZAZOLYL-5-ACETATE COMPOUNDS AND THEIR USE AS ANTI-HEPARANASE” (Leadiant Biosciences SA, priority 2017, dated 2018)

What was measured:
[1] = system: U87MG (human glioblastoma astrocytoma); assay: Cell adhesion assay on matrigel coated wells, U87MG; format: cell-based; settings: test compound at 2.5 µM, percent of adhesion with respect to the control (100%)
Protocol: (§1) Cell surface, non-integrin molecules such as heparan sulfate proteoglycans (HSPGs) may be involved in the regulation of early adhesive stages of cell-ECM interactions. A cell adhesion assay has been employed to determine if the newly designed heparanase inhibitors were able to interfere with adhesion properties of cancer cells.
(§2) HT1080 (human fibrosarcoma) and U87MG (human glioblastoma astrocytoma) cells were treated for 18-20 h with test compounds in complete medium supplemented with 10% FCS. Then cells were collected, washed in complete medium, and added to matrigel coated wells in triplicate, at previously identified optimal seeding density, and incubated at 37 °C in complete medium for times ranging from 15 minutes to 4h, according to the cell line. After incubation, the wells were washed three times with serum-free medium and the remaining firmly attached cells were stained with crystal-violet 0.1%. Optical density was measured at 560 nm by Victor 3 (Perkin-Elmer) plate analyzer. Each experiment was repeated three times.
(§3) Table 3. […] In Invasion assay, data were expressed as the percent invasion (range) with respect to cell migration through uncoated insert membrane. In Adhesion assay, data were expressed as the percent of adhesion with respect to the control (100%). • Legend • ++: 50-90% • + : < 50% • - : Not Active

[2] = system: HT1080 (human fibrosarcoma); assay: Cell adhesion assay on matrigel coated wells, HT1080; format: cell-based; settings: HT1080, test compound at 2.5 µM; percent of adhesion with respect to the control (100%)
Protocol: as §1, §2, §3

[3] = system: U87MG (human glioblastoma astrocytoma); assay: Matrigel cell invasion assay, U87MG; format: cell-based; settings: Homo sapiens, U-87 MG, test compound at 2.5 µM, 24 h pre-treatment, 24 h invasion
Protocol: (§4) Heparanase inhibitors were then evaluated for their activity on the invasive potential of HT1080 (human fibrosarcoma), U87MG (human glioblastoma astrocytoma) and U2OS (human osteosarcoma) human cell lines, using the Matrigel cell invasion assay which allows to assess the cell invasion ability of malignant and normal cells.
(§5) Invasion assay was performed using BioCoat cell culture inserts (BioCoat 8.0µm PET Membrane 24 Well Permeable Supports, Corning). Filters were coated with 100 µl of 300 µg/ml Matrigel dissolved in coating buffer (0.01 M Tris pH 8.0, 0.7% NaCl) (Becton-Dickinson Sciences). DMEM (Dulbecco's Modified Eagle's Medium) containing 5% FBS was added to the lower chambers. Cells were pre-treated with heparanase inhibitors for 24 h, detached and added to the upper chambers in media containing the inhibitors. Cells were allowed to invade for 24 h at 37°C in a CO2 incubator and then unmigrated cells were removed from the upper chamber with a cotton swab. The invading cells were fixed, stained with 0.1% crystal violet for 10 min at room temperature, photographed and counted under inverted microscope.
(§6) Test compounds were analyzed at fixed concentration (2.5 µM) for several fields, in duplicates. Activity of test compounds was compared to the reference compound. Activity of most interesting compound was confirmed in a second cell invasion assay. Data were expressed as the percent invasion with respect to cell migration through uncoated insert membrane (see Table 3 below)
as §3

[4] = system: HT1080 (human fibrosarcoma); assay: SRB Cell Cytotoxicity Assay, HT1080; format: cell-based; settings: HT-1080, HT1080, 72h treatment, read-out: Concentration (µM) of test compounds at which the cell growth is inhibited by 50 %. HT1080
Description: (§7) SRB Cell Cytotoxicity Assay is an assay based upon the quantitative staining of cellular proteins by sulforhodamine B (SRB). This assay can be used for high-throughput drug screening (Vichai & Kirkitara, Nature Protocol. 2006, 1, 112). Sulforhodamine B is an anionic aminoxanthene dye that forms an electrostatic complex with the basic amino acid residues of proteins under moderately acid conditions, which provides a sensitive linear response.
(§8) To assess a putative antiproliferative activity of the selected compounds, HT1080 (human fibrosarcoma), U87MG (human glioblastoma astrocytoma) and U2OS (human osteosarcoma) cell lines were treated for 72h, in triplicate, with increasing concentrations of heparanase inhibitors. Inhibition of cell proliferation was then measured by the classical colorimetric SRB Cell Cytotoxicity assay. Absorbance was measured by spectrophotometer at a wavelength of 510 nm and cell proliferation was determined as percent with respect to control cells (cells treated with the vehicle alone). EC50 values were then determined by GraphPad Prism.

FGF-2 = assay: Real-Time quantitative PCR of FGF-2 mRNA in HT1080 cells; format: cell-based, human; settings: 24 h
Protocol: (§9) To evaluate the effect of heparanase inhibitors on the tumor transcription of genes encoding for proangiogenic factors, such as FGF1/2, VEGF, MMP-9, HSPE-1, the relative mRNA levels were analyzed by quantitative Real-Time Quantitative PCR. To perform the assay, HT1080 (human fibrosarcoma) cells were cultured in complete medium containing 10%FCS (fetal calf serum). Cells were plated in 24-well plates and treated at fixed concentration (i.e., highest non-toxic concentration) of test compounds. After 24 h, cells were detached, collected and total RNA extracted by RNeasy Mini Kit (QIAGEN). Following reverse transcription step, FGF1/2, VEGF, MMP-9, HSPE-1 mRNA levels, were quantified by qPCR using the advanced Universal SYBR Green Supermix (Bio Rad) and ABI PRISM 7900HT Thermal Cycler System (Perkin Elmer), according to the manufacturer's instructions. Appropriate no-RT and non-template controls were included in each 96-well PCR reaction, and dissociation analysis was performed at the end of each run to confirm the specificity of the reaction. Relative levels of RNA were calculated using the ddCt method. Standard curve and sample data were run in duplicate.
(§10) In the Table 5 a mean value is reported.

[5] = system: U2OS (human osteosarcoma); assay: SRB Cell Cytotoxicity Assay, U2OS; format: cell-based; settings: 72h treatment, read-out: Concentration (µM) of test compounds at which the cell growth is inhibited by 50 %. U2OS
Description: as §7, §8

HPSE-1 = assay: Real-Time quantitative PCR of HPSE-1 mRNA in HT1080 cells; format: cell-based, human; settings: 24 h
Protocol: as §9, §10

[6] = system: U87MG (human glioblastoma astrocytoma); assay: SRB Cell Cytotoxicity Assay, U87MG; format: cell-based; settings: U-87 MG, 72h treatment, read-out: Concentration (µM) of test compounds at which the cell growth is inhibited by 50 %. U87MG
Description: as §7, §8

FGF-1 = assay: Real-Time quantitative PCR of FGF-1 mRNA in HT1080 cells; format: cell-based, human; settings: 24 h
Protocol: as §9, §10

[7] = system: HT1080 (human fibrosarcoma); assay: Matrigel cell invasion assay, HT1080; format: cell-based; settings: HT-1080, HT1080, test compound at 2.5 µM, 24 h pre-treatment, 24 h invasion
Protocol: as §4, §5, §6, §3

[8] = system: U2OS (human osteosarcoma); assay: Matrigel cell invasion assay, U2OS; format: cell-based; settings: Homo sapiens, test compound at 2.5 µM, 24 h pre-treatment, 24 h invasion
Protocol: as §4, §5, §6, §3

SMILES	Adhesion Assay (%) U87MG [1]	Adhesion Assay (%) HT1080 [2]	inhibition at 2.5 µM [3]	EC50 [4]	Gene Expression (% mRNA vs. control) FGF-2 (FGF-2; 2.5 uM)	EC50 [5]	Gene Expression (% mRNA vs. control) HPSE-1 (HPSE-1; 2.5 uM)	EC50 [6]	Gene Expression (% mRNA vs. control) FGF-1 (FGF-1; 2.5 uM)	inhibition at 2.5 µM [7]	inhibition at 2.5 µM [8]	Gene Expression (% mRNA vs. control) FGF-2 (FGF-2; 10.0 uM)	Gene Expression (% mRNA vs. control) HPSE-1 (HPSE-1; 10.0 uM)	Gene Expression (% mRNA vs. control) FGF-1 (FGF-1; 10.0 uM)
O=C(O)Cc1ccc2oc(-c3ccc(NC(=O)Nc4ccc(-c5nc6cc(CC(=O)O)ccc6o5)cc4F)c(F)c3)nc2c1 [Compound 20, 2,2'-(((Carbonylbis(azanediyl))bis(3-fluoro-4,1-phenylene))bis(benzo[d]oxazole-2,5-diyl))diacetic acid]	64.90%	83.25%	50 to 90%	> 10 µM	∼ 88%	> 10 µM	∼ 100%	> 10 µM	∼ 85%	< 50%	50 to 90%			
O=C(O)CNC(=O)Cc1ccc2oc(-c3ccc(NC(=O)Nc4ccc(-c5nc6cc(CC(=O)NCC(=O)O)ccc6o5)cc4F)c(F)c3)nc2c1 [Compound 25, 2,2'-((2,2'-(((Carbonylbis(azanediyl))bis(3-fluoro-4,1-phenylene))bis(benzo[d]oxazole-2,5-diyl))bis(acetyl))bis(azanediyl))diacetic acid]	12.30%	81.60%	50 to 90%	> 10 µM		> 10 µM		> 10 µM		50 to 90%	< 50%	∼ 68%	∼ 62%	∼ 52%
